Test results as given in patent US20200054633A1 (priority 2017, published 2020).
“Also recorded” adds a separate entry of the source. Like-named read-outs stand apart in the source and are kept apart here.

Conditions: for subjects with nausea / subjects with treatment-emergent diarrhea: Safety Set
Description: This study followed a randomized, double-blind, placebo-controlled, parallel-group, multicenter design.
Analysis set for safety: Safety Set included all subjects who received at least 1 dose of study drug.

## O=C(O)[C@H]1C2CCC(CC2)[C@@H]1Nc1nc(-c2c[nH]c3ncc(F)cc23)ncc1F [Compound (1), Pimodivir]
600 mg, OST placebo, N=74
  Any TEAE: 39 (52.7%)
  Any TEAE at least possibly related to study medication: 26 (35.1%)
  Any TEAE leading to a temporary stop of study medication: 2 (2.7%)
  Any TEAE leading to permanent stop of study medication: 3 (4.1%)
  Any TEAE with fatal outcome: 0
  Grade 3 TEAE: Anaemia: 0
  Grade 3 TEAE: Balance disorder: 0
  Grade 3 TEAE: Blood and lymphatic system disorders: 1 (1.4%)
  Grade 3 TEAE: Blood creatine phosphokinase increased: 1 (1.4%)
  Grade 3 TEAE: Bronchitis: 0
  Grade 3 TEAE: Constipation: 1 (1.4%)
  Grade 3 TEAE: Diarrhoea: 1 (1.4%)
  Grade 3 TEAE: Fatigue: 0
  Grade 3 TEAE: Gastrointestinal disorders: 2 (2.7%)
  Grade 3 TEAE: General disorders and administration site conditions: 0
  Grade 3 TEAE: Hyperkalaemia: 1 (1.4%)
  Grade 3 TEAE: Infections and infestations: 0
  Grade 3 TEAE: Investigations: 1 (1.4%)
  Grade 3 TEAE: Lymphopenia: 1 (1.4%)
  Grade 3 TEAE: Metabolism and nutrition disorders: 1 (1.4%)
  Grade 3 TEAE: Nausea: 0
  Grade 3 TEAE: Nervous system disorders: 0
  Grade 3 TEAE: Neutropenia: 0
  Grade 3 TEAE: Neutrophil count decreased: 0
  Grade 3 TEAE: Protein urine present: 0
  Grade 3 TEAE: Syncope: 0
  Grade 3 TEAE: Thrombocytopenia: 0
  Grade 3 TEAE: Vomiting: 0
  TEAE: Abdominal discomfort: 1 (1.4%) n (%)
  TEAE: Abdominal pain: 0 n (%)
  TEAE: Abdominal pain upper: 2 (2.7%) n (%)
  TEAE: Abdominal tenderness: 0 n (%)
  TEAE: Alanine aminotransferase increased: 2 (2.7%) n (%)
  TEAE: All events: 39 (52.7%) n (%)
  TEAE: Anaemia: 0 n (%)
  TEAE: Aphthous stomatitis: 0 n (%)
  TEAE: Aspartate aminotransferase increased: 1 (1.4%) n (%)
  TEAE: Atrioventricular block first degree: 0 n (%)
  TEAE: Back pain: 1 (1.4%) n (%)
  TEAE: Bacterial vaginosis: 0 n (%)
  TEAE: Balance disorder: 0 n (%)
  TEAE: Blood and lymphatic system disorders: 3 (4.1%) n (%)
  TEAE: Blood bicarbonate decreased: 0 n (%)
  TEAE: Blood bilirubin decreased: 0 n (%)
  TEAE: Blood bilirubin increased: 0 n (%)
  TEAE: Blood creatine phosphokinase increased: 1 (1.4%) n (%)
  TEAE: Blood creatinine increased: 0 n (%)
  TEAE: Blood glucose increased: 1 (1.4%) n (%)
  TEAE: Blood potassium increased: 1 (1.4%) n (%)
  TEAE: Blood pressure diastolic increased: 1 (1.4%) n (%)
  TEAE: Blood urine: 0 n (%)
  TEAE: Bradycardia: 1 (1.4%) n (%)
  TEAE: Bronchitis: 0 n (%)
  TEAE: Cardiac disorders: 1 (1.4%) n (%)
  TEAE: Constipation: 1 (1.4%) n (%)
  TEAE: Contusion: 1 (1.4%) n (%)
  TEAE: Cough: 1 (1.4%) n (%)
  TEAE: Decreased appetite: 0 n (%)
  TEAE: Dehydration: 0 n (%)
  TEAE: Diabetes mellitus: 0 n (%)
  TEAE: Diarrhoea: 20 (27.0%) n (%)
  TEAE: Dizziness: 2 (2.7%) n (%)
  TEAE: Dry mouth: 1 (1.4%) n (%)
  TEAE: Dry skin: 1 (1.4%) n (%)
  TEAE: Dysgeusia: 0 n (%)
  TEAE: Dyspepsia: 0 n (%)
  TEAE: Dyspnoea: 0 n (%)
  TEAE: Dysuria: 0 n (%)
  TEAE: Ear and labyrinth disorders: 0 n (%)
  TEAE: Ear discomfort: 0 n (%)
  TEAE: Ecchymosis: 0 n (%)
  TEAE: Electrocardiogram ST segment depression: 0 n (%)
  TEAE: Enteritis: 0 n (%)
  TEAE: Fatigue: 0 n (%)
  TEAE: Fungal infection: 0 n (%)
  TEAE: Gamma-glutamyltransferase increased: 1 (1.4%) n (%)
  TEAE: Gastrointestinal disorders: 22 (29.7%) n (%)
  TEAE: General disorders and administration site conditions: 0 n (%)
  TEAE: Glomerular filtration rate decreased: 1 (1.4%) n (%)
  TEAE: Gout: 0 n (%)
  TEAE: HIV antibody positive: 0 n (%)
  TEAE: HIV test positive: 0 n (%)
  TEAE: Haematuria: 0 n (%)
  TEAE: Haemoglobin decreased: 0 n (%)
  TEAE: Haemoglobin increased: 0 n (%)
  TEAE: Headache: 1 (1.4%) n (%)
  TEAE: Hepatic enzyme increased: 1 (1.4%) n (%)
  TEAE: Hepatitis C: 0 n (%)
  TEAE: Herpes simplex: 0 n (%)
  TEAE: Hyperglycaemia: 2 (2.7%) n (%)
  TEAE: Hyperhidrosis: 1 (1.4%) n (%)
  TEAE: Hyperkalaemia: 2 (2.7%) n (%)
  TEAE: Hyperproteinaemia: 0 n (%)
  TEAE: Hypertension: 0 n (%)
  TEAE: Hyperuricaemia: 0 n (%)
  TEAE: Hypokalaemia: 0 n (%)
  TEAE: Hyponatraemia: 0 n (%)
  TEAE: Hypophosphataemia: 0 n (%)
  TEAE: Hypothermia: 0 n (%)
  TEAE: Increased appetite: 1 (1.4%) n (%)
  TEAE: Infections and infestations: 1 (1.4%) n (%)
  TEAE: Injury, poisoning and procedural complications: 1 (1.4%) n (%)
  TEAE: Insomnia: 1 (1.4%) n (%)
  TEAE: Investigations: 10 (13.5%) n (%)
  TEAE: Irritability: 1 (1.4%) n (%)
  TEAE: Labyrinthitis: 0 n (%)
  TEAE: Leukopenia: 1 (1.4%) n (%)
  TEAE: Lymph node pain: 0 n (%)
  TEAE: Lymphadenopathy: 0 n (%)
  TEAE: Lymphopenia: 1 (1.4%) n (%)
  TEAE: Metabolism and nutrition disorders: 5 (6.8%) n (%)
  TEAE: Micturition urgency: 1 (1.4%) n (%)
  TEAE: Middle ear effusion: 0 n (%)
  TEAE: Migraine: 1 (1.4%) n (%)
  TEAE: Muscle spasms: 0 n (%)
  TEAE: Musculoskeletal and connective tissue disorders: 1 (1.4%) n (%)
  TEAE: Musculoskeletal chest pain: 0 n (%)
  TEAE: Myalgia: 0 n (%)
  TEAE: Myocarditis: 0 n (%)
  TEAE: Nasal congestion: 0 n (%)
  TEAE: Nausea: 3 (4.1%) n (%)
  TEAE: Nephropathy: 0 n (%)
  TEAE: Nervous system disorders: 4 (5.4%) n (%)
  TEAE: Neutropenia: 1 (1.4%) n (%)
  TEAE: Neutrophil count decreased: 4 (5.4%) n (%)
  TEAE: Oedema peripheral: 0 n (%)
  TEAE: Oral herpes: 1 (1.4%) n (%)
  TEAE: Otitis media: 0 n (%)
  TEAE: Paraesthesia: 0 n (%)
  TEAE: Percussion test abnormal: 0 n (%)
  TEAE: Petechiae: 0 n (%)
  TEAE: Pharyngitis streptococcal: 0 n (%)
  TEAE: Pneumonia chlamydial: 0 n (%)
  TEAE: Protein urine: 0 n (%)
  TEAE: Protein urine present: 0 n (%)
  TEAE: Proteinuria: 0 n (%)
  TEAE: Pruritus: 0 n (%)
  TEAE: Psychiatric disorders: 3 (4.1%) n (%)
  TEAE: Rash: 0 n (%)
  TEAE: Red blood cells urine: 0 n (%)
  TEAE: Renal and urinary disorders: 1 (1.4%) n (%)
  TEAE: Renal failure: 0 n (%)
  TEAE: Renal failure chronic: 0 n (%)
  TEAE: Renal impairment: 0 n (%)
  TEAE: Respiratory, thoracic and mediastinal disorders: 2 (2.7%) n (%)
  TEAE: Rhonchi: 0 n (%)
  TEAE: Sensation of foreign body: 0 n (%)
  TEAE: Sinus bradycardia: 0 n (%)
  TEAE: Sinus congestion: 0 n (%)
  TEAE: Sinus tachycardia: 0 n (%)
  TEAE: Sinusitis: 0 n (%)
  TEAE: Skin and subcutaneous tissue disorders: 2 (2.7%) n (%)
  TEAE: Sleep disorder: 1 (1.4%) n (%)
  TEAE: Sleep terror: 0 n (%)
  TEAE: Syncope: 0 n (%)
  TEAE: Tachycardia: 0 n (%)
  TEAE: Thrombocytopenia: 0 n (%)
  TEAE: Tinnitus: 0 n (%)
  TEAE: Tongue discolouration: 0 n (%)
  TEAE: Tremor: 0 n (%)
  TEAE: Upper respiratory tract infection: 0 n (%)
  TEAE: Urinary tract infection: 0 n (%)
  TEAE: Urine ketone body present: 0 n (%)
  TEAE: Vascular disorders: 0 n (%)
  TEAE: Vertigo: 0 n (%)
  TEAE: Vomiting: 3 (4.1%) n (%)
  TEAE: Wheezing: 1 (1.4%) n (%)
  TEAE: White blood cell count decreased: 1 (1.4%) n (%)
  Worst grade 1 or 2 TEAE: 34 (45.9%)
  Worst grade 3 TEAE: 5 (6.8%)
  Worst grade 3 or 4 TEAE: 5 (6.8%)
  Worst grade 4 TEAE: 0
Compound (1) 300 mg bid
  subjects with nausea: 4.1%
  subjects with treatment-emergent diarrhea: 6.8%
Compound (1) 600 mg bid
  severe events considered possibly related to trial medication: blood creatine phosphokinase increased and diarrhea
  subjects with nausea: 4.1%
  subjects with treatment-emergent diarrhea: 27.0%
Compound (1) 600 mg bid, one subject, doubtfully related according to the investigator
  treatment-emergent serious adverse event (SAE): an SAE of moderate increased alanine aminotransferase; also recorded: a moderate treatment-emergent AE (TEAE) of increased alanine aminotransferase
Clinical study, 300 or 600 mg bid
  overall safety and tolerability: generally safe and well tolerated
